Experimental data taken from US7709500B2, “Chemical compounds” (AstraZeneca AB, priority 2002, dated 2010).
Structures can show the parent of a compound that is named as a salt.

Key:
CCR3 = biological target: T1, CCR3 (Homo sapiens, UniProt P51677); assay: Human eosinophil chemotaxis (eotaxin mediated); assay type: cell-based; details: read-out: % inhibition at 3 nM eotaxin (1 uM compound), human eosinophils
T1 construct: Human eosinophils were isolated from EDTA anticoagulated peripheral blood; endogenous in cells; host or cells: human peripheral blood eosinophils
T1 sequence (P51677 1-355): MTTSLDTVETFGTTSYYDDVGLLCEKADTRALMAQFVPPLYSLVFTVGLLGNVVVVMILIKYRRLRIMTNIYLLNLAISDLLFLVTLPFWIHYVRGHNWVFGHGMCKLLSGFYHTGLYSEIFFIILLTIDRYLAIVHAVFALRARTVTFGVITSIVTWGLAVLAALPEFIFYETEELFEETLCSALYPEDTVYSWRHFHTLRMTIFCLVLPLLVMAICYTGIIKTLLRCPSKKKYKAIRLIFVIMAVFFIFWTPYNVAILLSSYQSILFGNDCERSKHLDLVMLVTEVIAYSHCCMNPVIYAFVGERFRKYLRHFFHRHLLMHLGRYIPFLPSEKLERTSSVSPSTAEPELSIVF

human H1 receptor = biological target: T2, human H1 receptor (Homo sapiens, UniProt P35367); assay: Histamine H1 receptor binding, competition displacement of [3H]-pyrilamine; details: 1 nM [3H]-pyrilamine; membranes from recombinant CHO-K1 cells expressing the human H1 receptor; read-out: H1 pKi/[1328_S] (converted)
T2 construct: purchased Euroscreen SA, Brussels, Belgium ES-390-M; host or cells: recombinant CHO-K1 cells (membranes)
T2 sequence (P35367 whole entry): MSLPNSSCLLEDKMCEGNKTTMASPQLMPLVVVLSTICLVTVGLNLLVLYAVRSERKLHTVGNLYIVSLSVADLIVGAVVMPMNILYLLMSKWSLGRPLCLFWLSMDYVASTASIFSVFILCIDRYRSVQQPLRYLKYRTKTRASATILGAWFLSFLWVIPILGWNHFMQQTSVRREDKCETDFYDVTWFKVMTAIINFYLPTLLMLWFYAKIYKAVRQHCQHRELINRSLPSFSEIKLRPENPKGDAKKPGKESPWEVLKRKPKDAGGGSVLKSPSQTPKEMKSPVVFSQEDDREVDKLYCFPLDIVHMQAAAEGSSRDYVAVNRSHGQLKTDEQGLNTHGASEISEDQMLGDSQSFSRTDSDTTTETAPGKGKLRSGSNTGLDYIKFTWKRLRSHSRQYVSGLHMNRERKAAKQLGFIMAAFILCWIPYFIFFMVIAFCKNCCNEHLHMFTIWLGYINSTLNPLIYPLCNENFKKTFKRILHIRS

SMILES	inhibition at 1 µM (CCR3)	Ki (human H1 receptor)
NC(=O)c1c(OC2CCN(C[C@H](O)CNC(=O)c3c[nH]c(=O)c4ccccc34)CC2)ccc(Cl)c1Cl [Example 132]	101%	
O=C(NC[C@@H](O)CN1CCC(Oc2ccc(Cl)c(Cl)c2)CC1)[C@@H](O)c1ccccc1 [Example 58, (2S)-N-{(2R)-3-[4-(3,4-Dichlorophenoxy)piperidin-1-yl]-2-hydroxypropyl}-2-hyroxy-2-phenylethanamide]	104%	63.1 nM
CN(C[C@@H](O)CN1CCC(Oc2ccc(Cl)c(Cl)c2)CC1)C(=O)c1n[nH]c2ccccc12 [Example 53, N-{(2S)-3-[4-(3,4-Dichlorophenoxy)piperidin-1-yl]-2-hydroxypropyl}-N-methyl-1H-indazole-3-carboxamide]	105%	7.94 nM
Cc1c(Cl)ccc(OC2CCN(C[C@H](O)CNC(=O)c3c[nH]c(=O)c4cc(S(C)(=O)=O)ccc34)CC2)c1Cl [Example 215, N-{(2R)-3-[4-(2,4-Dichloro-3-methylphenoxy)piperidin-1-yl]-2-hydroxypropyl}-7-(methylsulfonyl)-1-oxo-1,2-dihydroisoquinoline-4-carboxamide acetate salt]	103%	
O=C(NC[C@@H](O)CN1CCC(Oc2ccc(Cl)c(Cl)c2)CC1)n1c(=O)[nH]c2ccccc21 [Example 45, N-{3-[4-(3,4-Dichlorophenoxy)piperidin-1-yl]-2-hydroxypropyl}-2-oxo-2,3-dihydro-1H-benzimidazole-1-carboxamide]	102%	
O=C(NC[C@@H](O)CN1CCC(Oc2ccc(Cl)c(Cl)c2)CC1)c1n[nH]c(=O)c2ccccc12 [Example 46, N-{(2R)-3-[4-(3,4-Dichlorophenoxy)piperidin-1-yl]-2-hydroxypropyl}-oxo-3,4-dihydrophthalazine-1-carboxamide]	105%	

The next lines start with the values.

inhibition at 1 µM (CCR3)	Ki (human H1 receptor)	SMILES
106%		O=C(NC[C@@H](O)CN1CCC(Oc2ccc(Cl)c(Cl)c2)CC1)c1c[nH]c(=O)c2ccccc12 [Example 10, N-{(2R)-3-[4-(3,4-Dichlorophenoxy)piperidin-1-yl]-2-hydroxypropyl}-1-oxo-1,2-dihydroisoquinoline-4-carboxamide]
95%	3.98 nM	CN(C[C@@H](O)CN1CCC(Oc2ccc(Cl)c(Cl)c2)CC1)C(=O)c1c[nH]c(=O)c2ccccc12 [Example 52, N-{(2S)-3-[4-(3,4-Dichlorophenoxy)piperidin-1-yl]-2-hydroxypropyl}-N-methyl-1-oxo-1,2-dihydroisoquinoline-4-carboxamide]
104%	12.6 nM	Cc1cc(Cl)ccc1OC1CCN(C[C@@H](O)CNC(=O)c2c[nH]c(=O)c3ccccc23)CC1 [Example 186, N-{(2S)-3-[4-(4-Chloro-2-methylphenoxy)piperidin-1-yl]-2-hydroxypropyl}-1-oxo-1,2-dihydroisoquinoline-4-carboxamide acetate salt]
103%	7.94 nM	Cc1c(Cl)ccc(OC2CCN(C[C@H](O)CNC(=O)c3c[nH]c(=O)c4ccccc34)CC2)c1Cl [Example 17, N-{(2R)-3-[4-(2,4-Dichloro-3-methylphenoxy)piperidin-1-yl]-2-hydroxypropyl}-1-oxo-1,2-dihydroisoquinoline-4-carboxamide]
103%		N#Cc1ccc(OC2CCN(C[C@H](O)CNC(=O)c3c[nH]c(=O)c4ccccc34)CC2)cc1Cl [Example 197, N-{(2R)-3-[4-(3-Chloro-4-cyanophenoxy)piperidin-1-yl]-2-hydroxypropyl}-1-oxo-1,2-dihydroisoquinoline-4-carboxamide]
104%	7.94 nM	O=C(NC[C@@H](O)CN1CCC(Oc2ccc(Cl)c(Cl)c2)CC1)c1c[nH]c2ccccc12 [Example 47, N-{(2R)-3-[4-(3,4-Dichlorophenoxy)piperidin-1-yl]-2-hydroxypropyl}-1H-indole-3-carboxamide]
99%		CS(=O)(=O)c1ccc2c(C(=O)NC[C@@H](O)CN3CCC(Oc4ccc(C#N)c(Cl)c4)CC3)c[nH]c(=O)c2c1 [Example 206, N-{(2R)-3-[4-(3-Chloro-4-cyanophenoxy)piperidin-1-yl]-2-hydroxypropyl}-7-(methylsulfonyl)-1-oxo-1,2-dihydroisoquinoline-4-carboxamide]
